Experimental data from ChEMBL document CHEMBL4265921, “Novel bisphosphonates with antiresorptive effect in bone mineralization and osteoclastogenesis” (Eur J Med Chem, 2018).
Active and inactive are the calls of the source. No cut-off for these calls is given here.

Experiments:
[1] = test system: MG-63; test: Antiproliferative activity against human MG63 cells assessed as reduction in cell proliferation at 500 uM after 72 hrs by crystal violet staining based assay; assay type: functional
[2] = test system: PC-3; test: Antiproliferative activity against human PC3 cells assessed as reduction in cell proliferation at 500 uM after 72 hrs by crystal violet staining based assay; assay type: functional
[3] = target: T1, Farnesyl pyrophosphate synthase (Homo sapiens) (UniProt P14324); test: Inhibition of recombinant human C-terminal His6-tagged FPPS expressed in Escherichia coli BL21 at 100 uM using DMAPP and IPP as substrates pretreated for 15 mins followed by substrates addition and measured after 1 hr by colorimetric method relative to control
T1 sequence (whole entry): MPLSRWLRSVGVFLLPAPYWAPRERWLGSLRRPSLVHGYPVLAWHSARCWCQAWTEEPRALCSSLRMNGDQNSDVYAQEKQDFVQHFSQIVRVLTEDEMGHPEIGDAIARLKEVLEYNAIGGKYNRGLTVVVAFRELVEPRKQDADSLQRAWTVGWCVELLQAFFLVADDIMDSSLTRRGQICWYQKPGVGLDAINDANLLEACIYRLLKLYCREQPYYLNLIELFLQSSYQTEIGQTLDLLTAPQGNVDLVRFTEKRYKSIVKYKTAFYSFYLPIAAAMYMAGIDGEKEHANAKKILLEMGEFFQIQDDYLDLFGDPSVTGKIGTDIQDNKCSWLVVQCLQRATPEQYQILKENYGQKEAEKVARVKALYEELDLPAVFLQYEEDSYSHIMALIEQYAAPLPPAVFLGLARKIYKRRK

[4] = target: T1, Farnesyl pyrophosphate synthase (Homo sapiens); test: Inhibition of recombinant human C-terminal His6-tagged FPPS expressed in Escherichia coli BL21 at 1 to 10 uM using DMAPP and IPP as substrates pretreated for 15 mins followed by substrates addition and measured after 1 hr by colorimetric method relative to control
[5] = target: T2, Geranylgeranyl pyrophosphate synthase (Homo sapiens) (UniProt O95749); test: Inhibition of recombinant human C-terminal His6-tagged GGPPS expressed in Escherichia coli BL21 at 1 to 10 uM using IPP and FPP as substrates pretreated for 15 mins followed by substrates addition and measured after 1 hr by colorimetric method relative to control
T2 sequence (whole entry): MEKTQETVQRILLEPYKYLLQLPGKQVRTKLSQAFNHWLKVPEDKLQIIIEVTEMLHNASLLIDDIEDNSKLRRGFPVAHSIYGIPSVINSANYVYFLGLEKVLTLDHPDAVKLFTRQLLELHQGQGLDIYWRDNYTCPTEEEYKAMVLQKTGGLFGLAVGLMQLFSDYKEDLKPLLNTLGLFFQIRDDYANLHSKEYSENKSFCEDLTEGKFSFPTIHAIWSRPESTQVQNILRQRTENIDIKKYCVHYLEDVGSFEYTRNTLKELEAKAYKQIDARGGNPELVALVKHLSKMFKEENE

[6] = test system: J774.A1; test: Antiproliferative activity against mouse J774A.1 cells assessed as change in cell proliferation at 100 uM after 72 hrs by crystal violet staining based assay relative to control; assay type: functional
[7] = test system: RAW264.7; test: Antiproliferative activity against mouse RAW264.7 cells assessed as change in cell proliferation at 100 uM after 72 hrs by crystal violet staining based assay relative to control; assay type: functional
[8] = test system: MG-63; test: Antiproliferative activity against human MG63 cells assessed as change in cell proliferation at 100 uM after 72 hrs by crystal violet staining based assay relative to control; assay type: functional
[9] = test system: PC-3; test: Antiproliferative activity against human PC3 cells assessed as change in cell proliferation at 100 uM after 72 hrs by crystal violet staining based assay relative to control; assay type: functional
[10] = test system: J774.A1; test: Antiproliferative activity against mouse J774A.1 cells assessed as reduction in cell proliferation at 500 uM after 72 hrs by crystal violet staining based assay; assay type: functional
[11] = test system: RAW264.7; test: Antiproliferative activity against mouse RAW264.7 cells assessed as reduction in cell proliferation at 500 uM after 72 hrs by crystal violet staining based assay; assay type: functional

| Structure (SMILES) | Activity [1] | Activity [2] | inhibition [3] | inhibition [4] | inhibition [5] | Activity [6] | Activity [7] | Activity [8] | Activity [9] | Activity [10] | Activity [11] |
| --- | --- | --- | --- | --- | --- | --- | --- | --- | --- | --- | --- |
| O=P(O)(O)C(O)(CSc1nc2ccccc2s1)P(=O)(O)O | inactive | inactive | 26% | 68 to 79% | 68 to 79% | – | – | – | – | – | – |
| O=P(O)(O)C(O)(CCCNc1ncccn1)P(=O)(O)O | inactive | inactive | 43% | 68 to 79% | 68 to 79% | -37.544% | -44.249% | -3.759% | -45.479% | inactive | inactive |
| O=P(O)(O)C(O)(CCCCc1ncnc2ccccc12)P(=O)(O)O | inactive | inactive | 29% | 68 to 79% | 68 to 79% | -15.466% | -29.565% | 24.024% | -10.283% | inactive | inactive |
| O=P(O)(O)C(O)(CCCCc1ncccn1)P(=O)(O)O | inactive | inactive | 51% | 68 to 79% | 68 to 79% | -24.754% | -35.941% | -0.023% | -14.446% | inactive | inactive |
| CC(Nc1ncnc2ccccc12)C(O)(P(=O)(O)O)P(=O)(O)O (racemic) | inactive | inactive | 56% | 68 to 79% | 68 to 79% | -5.898% | -11.295% | -4.026% | -15.839% | inactive | inactive |
| O=P(O)(O)C(O)(CNc1nc(-c2ccccc2)nc2ccccc12)P(=O)(O)O | inactive | inactive | 21% | 68 to 79% | 68 to 79% | -55.522% | -51.774% | -1.127% | 0.156% | inactive | inactive |
| O=P(O)(O)C(O)(CCCCc1ncc2ccccc2n1)P(=O)(O)O | inactive | inactive | 48% | 68 to 79% | 68 to 79% | -47.396% | -50.127% | -2.74% | -16.093% | inactive | inactive |
| O=P(O)(O)C(O)(CNc1nc2ccccc2s1)P(=O)(O)O | inactive | inactive | inactive | 68 to 79% | 68 to 79% | – | – | – | – | – | – |
| O=P(O)(O)C(O)(CCNc1ncnc2ccccc12)P(=O)(O)O | inactive | inactive | 56% | 68 to 79% | 68 to 79% | 6.688% | -16.95% | 13.185% | -1.552% | inactive | inactive |
| CC(Nc1ncc2ccccc2n1)C(O)(P(=O)(O)O)P(=O)(O)O (racemic) | inactive | inactive | 40% | 68 to 79% | 68 to 79% | -18.855% | -16.783% | -8.959% | -17.252% | inactive | inactive |
| O=P(O)(O)C(O)(CSc1nc2ccccc2[nH]1)P(=O)(O)O | inactive | inactive | 24% | 68 to 79% | 68 to 79% | – | – | – | – | – | – |
